# Biological target: T1, recombinant human GR (Homo sapiens, UniProt P04150)
# T1 construct: purchased Panvera/Invitrogen P2812 (kit P2893)
# T1 sequence (P04150 1-777): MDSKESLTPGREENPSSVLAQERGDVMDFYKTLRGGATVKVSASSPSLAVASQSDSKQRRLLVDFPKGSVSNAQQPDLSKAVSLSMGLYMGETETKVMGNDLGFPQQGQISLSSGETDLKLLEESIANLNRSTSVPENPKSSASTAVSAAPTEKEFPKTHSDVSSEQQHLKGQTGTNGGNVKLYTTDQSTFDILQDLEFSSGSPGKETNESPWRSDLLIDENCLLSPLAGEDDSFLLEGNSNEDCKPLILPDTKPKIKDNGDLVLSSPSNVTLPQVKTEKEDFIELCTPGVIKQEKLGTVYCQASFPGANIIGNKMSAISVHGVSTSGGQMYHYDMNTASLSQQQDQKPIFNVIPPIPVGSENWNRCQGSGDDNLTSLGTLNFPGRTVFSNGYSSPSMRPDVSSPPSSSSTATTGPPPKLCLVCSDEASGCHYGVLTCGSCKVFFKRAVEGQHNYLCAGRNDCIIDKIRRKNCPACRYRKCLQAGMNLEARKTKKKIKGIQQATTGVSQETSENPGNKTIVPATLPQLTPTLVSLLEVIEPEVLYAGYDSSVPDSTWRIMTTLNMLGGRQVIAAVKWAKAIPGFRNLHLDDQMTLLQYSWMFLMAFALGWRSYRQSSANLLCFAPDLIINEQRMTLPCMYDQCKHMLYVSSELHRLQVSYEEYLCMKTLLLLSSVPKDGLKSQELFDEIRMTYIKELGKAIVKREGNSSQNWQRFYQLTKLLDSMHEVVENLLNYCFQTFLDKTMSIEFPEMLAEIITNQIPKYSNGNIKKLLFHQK
# Assay: Human Glucocorticoid Receptor (GR) Assay, fluorescence polarization
# Type: binding
# Conditions: GS Red tracer, 2 hours at room temperature
# Description: Human Glucocorticoid Receptor (GR) Assay
# The assay is based on a commercial kit from Panvera/Invitrogen (Part number P2893). The assay technology is fluorescence polarization. The kit utilises recombinant human GR (Panvera, Part number P2812), a Fluoromone™ labelled tracer (GS Red, Panvera, Part number P2894) and a Stabilizing Peptide 10X (Panvera, Part number P2815). The GR and Stabilizing Peptide reagents are stored at −70° C. while the GS Red is stored at −20° C. Also included in the kit are 1M DTT (Panvera, Part number P2325, stored at −20° C.) and GR Screening buffer 10X (Panvera, Part number P2814, stored at −70° C. initially but once thawed stored at room temperature). Avoid repeated freeze/thaws for all reagents. The GR Screening buffer 10X comprises 100 mM potassium phosphate, 200 mM sodium molybdate, 1 mM EDTA and 20% DMSO.
# Test compounds (1 μL) and controls (1 μL) in 100% DMSO were added to black polystyrene 384-well plates (Greiner low volume black flat-bottom, part number 784076). 0% control was 100% DMSO and 100% control was 10 μM Dexamethasone. Background solution ([…]; assay buffer 10X, Stabilizing Peptide, DTT and ice cold MQ water) was added to the background wells. GS Red solution (7 μL; assay buffer 10X, Stabilizing Peptide, DTT, GS Red and ice cold water) was added to all wells except background wells. GR solution (7 μL; assay buffer 10X, Stabilizing Peptide, DTT, GR and ice cold water) was added to all wells. The plate was sealed and incubated in a dark at room temperature for 2 hours. The plate was read in an Analyst plate reader (LJL Biosystems/Molecular Devices Corporation) or other similar plate reader capable of recording fluorescence polarization (excitation wavelength 530 nm, emission wavelength […] and a dichroic mirror at 561 nm). The IC50 values were calculated using XLfit model 205.
row,Compound,IC50 [nM]
1,"COc1ccc(S(=O)(=O)NCc2ccc(-c3ccc(Cl)cc3)s2)cc1 [Example 26, N-{[5-(4-Chlorophenyl)-2-thienyl]methyl}-4-methoxybenzenesulfonamide]",200
2,"N#Cc1cccc(S(=O)(=O)NCc2ccc(-c3ccc(Cl)cc3)s2)c1 [Example 37, N-{[5-(4-Chlorophenyl)-2-thienyl]methyl}-3-cyanobenzenesulfonamide]",820
3,"Cc1nn(C(F)F)c(C)c1S(=O)(=O)Nc1cccc(CCc2ccccn2)c1 [Example 36, 1-(Difluoromethyl)-3,5-dimethyl-N-[3-(2-pyridin-2-ylethyl)phenyl]-1H-pyrazole-4-sulfonamide]",810
4,"CCCCOc1ccc(S(=O)(=O)NCc2c(-c3ccccc3)noc2C)cc1 [Example 6, 4-n-Butoxy-N-(5-methyl-3-phenyl-isoxazol-4-ylmethyl)-benzenesulfonamide]",700
5,"O=S(=O)(NCc1ccc(-c2ccc(Cl)cc2)s1)c1ccc(F)cc1 [Example 21, N-{[5-(4-Chlorophenyl)-2-thienyl]methyl}-4-fluorobenzenesulfonamide]",62
6,"COc1cc(C)c(S(=O)(=O)NCc2ccc(-c3ccc(Cl)cc3)s2)c(C)c1C [Example 31, N-{[5-(4-Chlorophenyl)-2-thienyl]methyl}-4-methoxy-2,3,6-trimethylbenzenesulfonamide]",330
7,"O=S(=O)(Nc1cccc(CCc2ccccn2)c1)c1ccc(Cl)s1 [Example 33, 5-Chloro-N-[3-(2-pyridin-2-ylethyl)phenyl]thiophene-2-sulfonamide]",650
8,"Cc1cc(C)cc(S(=O)(=O)Nc2cccc(CCc3ccccn3)c2)c1 [Example 29, 3,5-Dimethyl-N-[3-(2-pyridin-2-ylethyl)phenyl]benzenesulfonamide]",230
9,N-{[5-(4-Chlorophenyl)-2-thienyl]methyl}-3-(4-methylphenoxy)benzenesulfonamide [Example 32],390
10,"Cc1onc(-c2ccccc2)c1CNS(=O)(=O)c1ccc(-c2ccc(F)cc2)cc1 [Example 2, 4′-Fluoro-biphenyl-4-sulfonic acid (5-methyl-3-phenyl-isoxazol-4-ylmethyl)-amide]",35
11,"Cc1c(S(=O)(=O)Nc2cccc(CCc3ccccn3)c2)cnn1-c1ccccc1 [Example 22, 5-Methyl-1-phenyl-N-[3-(2-pyridin-2-ylethyl)phenyl]-1H-pyrazole-4-sulfonamide]",99
12,"O=S(=O)(NCc1ccc(-c2ccc(Cl)cc2)s1)c1ccccc1Br [Example 24, 2-Bromo-N-{[5-(4-chlorophenyl)-2-thienyl]methyl}benzenesulfonamide]",170
13,"COc1cc(C)c(S(=O)(=O)NCc2c(-c3ccccc3)noc2C)c(C)c1C [Example 1, 4-Methoxy-2,3,6-trimethyl-N-(5-methyl-3-phenyl-isoxazol-4-ylmethyl)-benzenesulfonamide]",14
14,N-{[5-(4-Chlorophenyl)-2-thienyl]methyl}-4-(pyridin-2-yloxy)benzenesulfonamide [Example 25],170
15,"O=[N+]([O-])c1ccc(S(=O)(=O)NCc2ccc(-c3ccc(Cl)cc3)s2)cc1 [Example 20, N-{[5-(4-Chlorophenyl)-2-thienyl]methyl}-4-nitrobenzenesulfonamide]",59
16,"Cc1onc(-c2ccccc2)c1CNS(=O)(=O)c1ccc(-c2ccccc2)cc1 [Example 5, Biphenyl-4-sulfonic acid (5-methyl-3-phenyl-isoxazol-4-ylmethyl)-amide]",370
17,Cc1ccc(C)c(S(=O)(=O)Nc2cccc(CCc3ccccn3)c2)c1 [Compound 49],350
18,"Cc1cc(C)c(S(=O)(=O)NCc2ccc(-c3ccc(Cl)cc3)s2)c(C)c1 [Example 19, N-{[5-(4-Chlorophenyl)-2-thienyl]methyl}-2,4,6-trimethylbenzenesulfonamide]",36
19,"Cc1cc(S(=O)(=O)Nc2cccc(CCc3ccccn3)c2)c(C)s1 [Example 28, 2,5-dimethyl-N-[3-(2-pyridin-2-ylethyl)phenyl]thiophene-3-sulfonamide]",220
20,"O=S(=O)(Cc1ccc(Cl)cc1)NCc1ccc(-c2ccc(Cl)cc2)s1 [Example 34, 1-(4-Chlorophenyl)-N-{[5-(4-chlorophenyl)-2-thienyl]methyl}methanesulfonamide]",660
21,"Cc1cc(S(=O)(=O)Nc2cccc(CCc3ccccn3)c2)c(C)o1 [Example 35, 2,5-Dimethyl-N-[3-(2-pyridin-2-ylethyl)phenyl]furan-3-sulfonamide]",710
22,"COc1cccc(S(=O)(=O)NCc2ccc(-c3ccc(Cl)cc3)s2)c1 [Example 30, N-{[5-(4-Chlorophenyl)-2-thienyl]methyl}-3-methoxybenzenesulfonamide]",310
23,"Cn1nc(-c2ccc(S(=O)(=O)Nc3cccc(CCc4ccccn4)c3)s2)cc1C(F)(F)F [Example 23, 5-[1-Methyl-5-(trifluoromethyl)-1H-pyrazol-3-yl]-N-[3-(2-pyridin-2-ylethyl)phenyl]-thiophene-2-sulfonamide]",110
24,"O=S(=O)(Nc1cccc(CCc2ccccn2)c1)c1ccc(-c2ccccn2)s1 [Example 27, 5-Pyridin-2-yl-N-[3-(2-pyridin-2-ylethyl)phenyl]thiophene-2-sulfonamide]",200
